Source: the supplement of paper PMC10307832

Experiments:
Test in all cases: relative viability (nuclei count vs DMSO), 5 days (fraction); higher = more cells survive
[1] = test system: NCI-H1666
Outline: (§1)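 Lung cancer cell lines were seeded in 1536-well plates and dosed by pin tool the next day, with either a single drug or a fixed anchor-drug dose combined with five library-drug doses (not always all listed) spaced in √10 steps. Five days later, one step fixed the cells and stained their nuclei (final 0.05% Triton X-100, 1% formaldehyde, 1 ug/ml Hoechst), and nuclei were counted on 4× images. Relative viability is the nuclei count in treated wells divided by the count in vehicle wells, and each value is the median of duplicate plates.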

[2] = test system: LOU-NH91
Outline: as §1

[3] = test system: NCI-H2347
Outline: as §1

[4] = test system: NCI-H23
Outline: as §1

[5] = test system: HCC-44
Outline: as §1

[6] = test system: BEN
Outline: as §1

[7] = test system: NCI-H2126
Outline: as §1

[8] = test system: NCI-H650
Outline: as §1

[9] = test system: NCI-H2087
Outline: as §1

[10] = test system: 201T
Outline: as §1

[11] = test system: NCI-H2023
Outline: as §1

[12] = test system: LCLC-103H
Outline: as §1

[13] = test system: NCI-H2009
Outline: as §1

[14] = test system: HARA
Outline: as §1

[15] = test system: NCI-H1993
Outline: as §1

[16] = test system: NCI-H838
Outline: as §1

[17] = test system: NCI-H441
Outline: as §1

[18] = test system: NCI-H3122
Outline: as §1

[19] = test system: NCI-H647
Outline: as §1

[20] = test system: NCI-H727
Outline: as §1

[21] = test system: NCI-H596
Outline: as §1

[22] = test system: EMC-BAC-2
Outline: as §1

## COc1cc(N2CCC(C(N)=O)CC2)ccc1Nc1nc(N)c(Cl)c(Nc2ccccc2S(=O)(=O)C(C)C)n1 [HG-5-88-01] + C[C@@H](Oc1cc(-c2cnn(C3CCNCC3)c2)cnc1N)c1c(Cl)ccc(F)c1Cl [Crizotinib] (partner 1 µM)
[1]; first compound 0.04 µM
  relative viability: 1.01
[1]; first compound 0.1265 µM
  relative viability: 1.1
[1]; first compound 0.4 µM
  relative viability: 0.941
[1]; first compound 1.265 µM
  relative viability: 0.794
[1]; first compound 4 µM
  relative viability: 0.594
[2]; first compound 0.04 µM
  relative viability: 0.745
[2]; first compound 0.1265 µM
  relative viability: 0.737
[2]; first compound 0.4 µM
  relative viability: 0.671
[2]; first compound 1.265 µM
  relative viability: 0.494
[2]; first compound 4 µM
  relative viability: 0.566
[3]; first compound 0.04 µM
  relative viability: 0.779
[3]; first compound 0.1265 µM
  relative viability: 0.81
[3]; first compound 0.4 µM
  relative viability: 0.834
[3]; first compound 1.265 µM
  relative viability: 0.634
[3]; first compound 4 µM
  relative viability: 0.744
[4]; first compound 0.04 µM
  relative viability: 0.542
[4]; first compound 0.1265 µM
  relative viability: 0.43
[4]; first compound 0.4 µM
  relative viability: 0.481
[4]; first compound 1.265 µM
  relative viability: 0.471
[4]; first compound 4 µM
  relative viability: 0.26
[5]; first compound 0.04 µM
  relative viability: 0.777
[5]; first compound 0.1265 µM
  relative viability: 0.791
[5]; first compound 0.4 µM
  relative viability: 0.797
[5]; first compound 1.265 µM
  relative viability: 0.611
[5]; first compound 4 µM
  relative viability: 0.489
[6]; first compound 0.04 µM
  relative viability: 0.975
[6]; first compound 0.1265 µM
  relative viability: 0.915
[6]; first compound 0.4 µM
  relative viability: 0.895
[6]; first compound 1.265 µM
  relative viability: 0.625
[6]; first compound 4 µM
  relative viability: 0.962
[7]; first compound 0.04 µM
  relative viability: 1.02
[7]; first compound 0.1265 µM
  relative viability: 1.09
[7]; first compound 0.4 µM
  relative viability: 0.976
[7]; first compound 1.265 µM
  relative viability: 0.968
[7]; first compound 4 µM
  relative viability: 1.01
[8]; first compound 0.04 µM
  relative viability: 0.812
[8]; first compound 0.1265 µM
  relative viability: 0.739
[8]; first compound 0.4 µM
  relative viability: 0.579
[8]; first compound 1.265 µM
  relative viability: 0.519
[8]; first compound 4 µM
  relative viability: 0.398
[9]; first compound 0.04 µM
  relative viability: 0.758
[9]; first compound 0.1265 µM
  relative viability: 0.868
[9]; first compound 0.4 µM
  relative viability: 0.839
[9]; first compound 1.265 µM
  relative viability: 0.825
[9]; first compound 4 µM
  relative viability: 0.527
[10]; first compound 0.04 µM
  relative viability: 1
[10]; first compound 0.1265 µM
  relative viability: 0.846
[10]; first compound 0.4 µM
  relative viability: 1.03
[10]; first compound 1.265 µM
  relative viability: 0.986
[10]; first compound 4 µM
  relative viability: 1.11
[11]; first compound 0.04 µM
  relative viability: 0.729
[11]; first compound 0.1265 µM
  relative viability: 0.763
[11]; first compound 0.4 µM
  relative viability: 0.543
[11]; first compound 1.265 µM
  relative viability: 0.405
[11]; first compound 4 µM
  relative viability: 0.118
[12]; first compound 0.04 µM
  relative viability: 0.987
[12]; first compound 0.1265 µM
  relative viability: 0.955
[12]; first compound 0.4 µM
  relative viability: 0.95
[12]; first compound 1.265 µM
  relative viability: 0.923
[12]; first compound 4 µM
  relative viability: 0.985
[13]; first compound 0.04 µM
  relative viability: 1.05
[13]; first compound 0.1265 µM
  relative viability: 1.03
[13]; first compound 0.4 µM
  relative viability: 0.938
[13]; first compound 1.265 µM
  relative viability: 0.962
[13]; first compound 4 µM
  relative viability: 0.853
[14]; first compound 0.04 µM
  relative viability: 1.09
[14]; first compound 0.1265 µM
  relative viability: 0.891
[14]; first compound 0.4 µM
  relative viability: 1.08
[14]; first compound 1.265 µM
  relative viability: 1.08
[14]; first compound 4 µM
  relative viability: 0.695
[15]; first compound 0.04 µM
  relative viability: 0.988
[15]; first compound 0.1265 µM
  relative viability: 0.773
[15]; first compound 0.4 µM
  relative viability: 0.892
[15]; first compound 1.265 µM
  relative viability: 0.615
[15]; first compound 4 µM
  relative viability: 0.753
[16]; first compound 0.04 µM
  relative viability: 0.799
[16]; first compound 0.1265 µM
  relative viability: 0.868
[16]; first compound 0.4 µM
  relative viability: 0.641
[16]; first compound 1.265 µM
  relative viability: 0.571
[16]; first compound 4 µM
  relative viability: 0.596
[17]; first compound 0.04 µM
  relative viability: 0.655
[17]; first compound 0.1265 µM
  relative viability: 0.764
[17]; first compound 0.4 µM
  relative viability: 0.554
[17]; first compound 1.265 µM
  relative viability: 0.648
[17]; first compound 4 µM
  relative viability: 0.431
[18]; first compound 0.04 µM
  relative viability: 0.271
[18]; first compound 0.1265 µM
  relative viability: 0.264
[18]; first compound 0.4 µM
  relative viability: 0.292
[18]; first compound 1.265 µM
  relative viability: 0.233
[18]; first compound 4 µM
  relative viability: 0.173
[19]; first compound 0.04 µM
  relative viability: 1.16
[19]; first compound 0.1265 µM
  relative viability: 0.992
[19]; first compound 1.265 µM
  relative viability: 0.955
[19]; first compound 4 µM
  relative viability: 0.393
[20]; first compound 0.04 µM
  relative viability: 0.931
[20]; first compound 0.1265 µM
  relative viability: 0.937
[20]; first compound 0.4 µM
  relative viability: 0.827
[20]; first compound 1.265 µM
  relative viability: 0.492
[20]; first compound 4 µM
  relative viability: 0.585
[21]; first compound 0.04 µM
  relative viability: 0.949
[21]; first compound 0.1265 µM
  relative viability: 1.04
[21]; first compound 0.4 µM
  relative viability: 1.02
[21]; first compound 1.265 µM
  relative viability: 0.936
[21]; first compound 4 µM
  relative viability: 0.734
[22]; first compound 0.04 µM
  relative viability: 0.776
[22]; first compound 0.1265 µM
  relative viability: 0.748
[22]; first compound 0.4 µM
  relative viability: 0.769
[22]; first compound 1.265 µM
  relative viability: 0.77
[22]; first compound 4 µM
  relative viability: 0.667
